What was measured:
Corynespora cassiicola [1] = experiment: Control of Corynespora cassiicola (target leaf spot) in vitro: inhibition of fungal growth in nutrient broth (PDB); format: cell-based; conditions: 24° C., 3-4 days, photometric 620 nm, read-out: control of Corynespora cassiicola (inhibition of growth vs untreated control)
Procedure: Conidia of the fungus from cryogenic storage were directly mixed into nutrient broth (PDB potato dextrose broth). A DMSO solution of the test compounds was placed into a microtiter plate (96-well format) and the nutrient broth containing the fungal spores was added to it. The test plates were incubated at 24° C. and the inhibition of growth (% control of Corynespora cassiicola) was determined photometrically after 3-4 days at 620 nm. The activity of a compound is derived by comparing the inhibition of growth in the treated test solution to the growth in the untreated check. The concentration of the compounds was 6.7, 2.2, 0.74, 0.25, and 0.082 ppm.

Corynespora cassiicola [2] = experiment: Control of Corynespora cassiicola (target leaf spot) on soybean plants under field conditions; format: in vivo; conditions: for Control vs. untreated (%) / Mean severity (percentage of leaf area covered by disease lesions): three foliar applications, soybean, Brazil
Procedure: Tested fungicides were formulated and applied to soybean plants in a foliar broadcast spray using a handheld horizontal boom sprayer. Three applications were made over the course of the growing season, starting 45 days after crop emergence, with following applications at 14-day intervals. Trials were conducted across five locations in Brazil. Assessments of severity of infection from Corynespora cassiicola were made at weekly intervals, based on the percentage of leaf area covered by disease lesions. The results reflect the median scores for these assessments, excluding those with less than 10% severity in the untreated checks to limit the confounding effect of low disease pressure. Values are expressed as the mean disease severity score and as the percentage control relative to the untreated. The comparison is made between Compound A-1.3 at 35 grams active ingredient per hectare and the commercial compounds trifloxystrobin and picoxystrobin at their label rate of 60 grams active ingredient per hectare.

[3] = Trial 1, 60 g/ha, untreated check 24.9
[4] = Trial 2, 60 g/ha, untreated check 18.8

SMILES | inhibition of growth at 6.7 ppm (Corynespora cassiicola [1]) [%] | Control vs. untreated (%) (Corynespora cassiicola [2]; Trial 1, 60 g/ha) | Mean severity (percentage of leaf area covered by disease lesions) (Corynespora cassiicola [2]; [3]) | Control vs. untreated (%) (Corynespora cassiicola [2]; Trial 2, 60 g/ha) | Mean severity (percentage of leaf area covered by disease lesions) (Corynespora cassiicola [2]; [4]) | inhibition of growth at 2.2 ppm (Corynespora cassiicola [1]) [%] | further results
CO/C=C(/C(=O)OC)c1ccccc1Oc1cc(Oc2ccccc2C#N)ncn1 [azoxystrobin] | 50 | – | – | – | – | – | –
CO/C=C(/C(=O)OC)c1ccccc1COc1cccc(C(F)(F)F)n1 [Picoxystrobin, picoxystrobin] | – | 45.9 | 14.8 | 20.0 | 14.0 | – | –
CON=C(C(=O)OC)c1ccccc1CON=C(C)c1cccc(C(F)(F)F)c1 [trifloxystrobin] | 50 | 35.3 | 18.1 | 6.7 | 16.0 | – | –
COC(=O)NCc1cc(-c2ccn(-c3c(F)cc(C4CC4)cc3F)n2)ccc1C [Compound A-1.3, methyl N-[[5-[1-(4-cyclopropyl-2,6-difluoro-phenyl)pyrazol-3-yl]-2-methyl-phenyl]methyl]carbamate] | ≥ 70 | – | – | – | – | ≥ 50 | Control vs. untreated (%) (Corynespora cassiicola [2]; Trial 1, 35 g/ha): 63.9%; Mean severity (percentage of leaf area covered by disease lesions) (Corynespora cassiicola [2]; Trial 1, 35 g/ha, untreated check 24.9): 9.9; Control vs. untreated (%) (Corynespora cassiicola [2]; Trial 2, 35 g/ha): 68.0%; Mean severity (percentage of leaf area covered by disease lesions) (Corynespora cassiicola [2]; Trial 2, 35 g/ha, untreated check 18.8): 5.3; control of Corynespora cassiicola compared with commercial compounds, in words (Corynespora cassiicola [2]; field trials 1 and 2, 35 g/ha vs trifloxystrobin and picoxystrobin at 60 g/ha): better control of Corynespora cassiicola than both trifloxystrobin and picoxystrobin; inhibition of growth at 0.74 ppm (Corynespora cassiicola [1]; 0.74 ppm): ≥ 50%
COC(=O)N(OC)c1ccccc1COc1ccn(-c2ccc(Cl)cc2)n1 [pyraclostrobin] | 50 | – | – | – | – | – | –
COC(=O)NCc1cc(-c2ccn(-c3c(F)cc(C(C)C)cc3F)n2)ccc1C [Compound A-1.1, methyl N-[[5-[1-(2,6-difluoro-4-isopropyl-phenyl)pyrazol-3-yl]-2-methyl-phenyl]methyl]carbamate] | ≥ 50 | – | – | – | – | ≥ 50 | –

From US20260293902A1, “METHODS OF CONTROLLING OR PREVENTING INFESTATION OF PLANTS BY THE PHYTOPATHOGENIC MICROORGANISM CORYNESPORA CASSIICOLA” (SYNGENTA CROP PROTECTION AG, priority 2023, published 2026)
